Where “and” joins values, the source holds several entries; their conditions need not be identical. Equal entries are not always repeated.
Target: T1, human TG2 (Homo sapiens, UniProt P21980)
T1 sequence (P21980 1-687): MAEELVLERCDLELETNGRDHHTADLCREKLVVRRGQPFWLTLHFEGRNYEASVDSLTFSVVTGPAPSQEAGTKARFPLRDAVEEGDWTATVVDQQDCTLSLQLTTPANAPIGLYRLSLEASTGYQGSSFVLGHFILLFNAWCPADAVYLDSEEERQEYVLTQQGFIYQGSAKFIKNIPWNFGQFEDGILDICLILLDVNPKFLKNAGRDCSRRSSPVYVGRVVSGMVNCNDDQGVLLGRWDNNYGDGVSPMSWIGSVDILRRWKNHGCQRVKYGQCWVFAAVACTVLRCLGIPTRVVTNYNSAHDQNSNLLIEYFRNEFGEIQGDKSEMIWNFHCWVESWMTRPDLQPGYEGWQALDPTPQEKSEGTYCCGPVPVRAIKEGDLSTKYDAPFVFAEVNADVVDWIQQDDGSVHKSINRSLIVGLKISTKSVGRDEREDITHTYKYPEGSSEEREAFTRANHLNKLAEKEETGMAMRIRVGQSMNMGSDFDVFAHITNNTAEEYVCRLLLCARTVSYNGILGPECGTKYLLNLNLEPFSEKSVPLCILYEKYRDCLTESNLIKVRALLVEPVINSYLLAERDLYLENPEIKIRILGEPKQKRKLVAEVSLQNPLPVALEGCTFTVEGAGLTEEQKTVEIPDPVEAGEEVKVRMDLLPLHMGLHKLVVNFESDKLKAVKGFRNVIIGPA
Assay: fluorescent screening assay for human TG2
Type: biochemical
Conditions: 20 nM TG2, 8 μM N,N-dimethylated Casein, 16 μM KxD, pH 7.4, 37° C
Description: (§1) The fluorescent screening assay for human TG2 was performed as described herein: Assay conditions were 20 nM TG2, 8 μM N,N-dimethylated Casein (NMC) and 16 μM K×D (used for all transglutaminase assays) in 25 mM Hepes, pH 7.4, 250 mM NaCl, 2 mM MgCl2, 0.5 mM CaCl2, 0.2 mM DTT, 0.05% Pluronic F-127 at 37° C. A time point was taken with a microplate reader (Safire or Ultra, Tecan; ex: 350 nm, em: 535 nm) every 3 minutes for up to 2 hours and the initial linear reaction progress was used to determine the reaction velocity as a measure for enzyme activity. Assay conditions were identical for human TG6 and similar for human TG1 and mouse TG2 apart from enzyme concentration (mTG2 at 5 nM; TG1 at 10 nM) and CaCl2 concentration (0.2 mM for mTG2; 0.05 mM for TG1). Factor XIIIa was activated using 0.1 μg/μl thrombin (Sigma) in 35 mM Tris pH 8.0 for 20 min at 30° C. and the transamidation reaction was performed with 20 nM Factor XIIIa in 50 mM Tris pH 8.0, 1.25 mM CaCl2, 0.05% Pluronic, 0.2 mM DTT. TG3 was activated with 0.02 μg/μl thrombin under the same conditions as Factor XIIIa and assay conditions were 10 nM TG3 in 50 mM Hepes, pH 8, 20 mM CaCl2, 0.2 mM DTT, 0.05% Pluronic F-127.
as §1, with “A” for “The”

| SMILES | IC50 |
| --- | --- |
| C=CC(=O)Nc1ccc(S(=O)(=O)N2CCN(C(=O)OCc3ccccc3)C(CC(=O)NC3C4CC5CC(C4)CC3C5)C2)cc1 (stereo not shown) [4-(4-Acryloylamino-benzenesulfonyl)-2-(adamantan-2-ylcarbamoylmethyl)-piperazine-1-carboxylic acid benzyl ester] | 100 to 1000 nM and < 100 nM |
| C=CC(=O)Nc1ccc(S(=O)(=O)N2CCN(c3ccc(Cl)cn3)CC2)cc1 [N-{4-[4-(5-Chloro-pyridin-2-yl)-piperazine-1-sulfonyl]-phenyl}-acrylamide] | < 100 nM and 100 to 1000 nM |
| C=CC(=O)Nc1ccc(S(=O)(=O)N2CCC(C(=O)N(C)c3ccccc3)CC2)cc1 [1-(4-Acryloylamino-benzenesulfonyl)-piperidine-4-carboxylic acid methyl-phenyl-amide] | < 100 nM and 100 to 1000 nM |
| C=CC(=O)Nc1ccc(S(=O)(=O)N2CCN(C(=O)OC(C)(C)C)CC2)c(OC)c1 [4-(4-Acryloylamino-2-methoxy-benzenesulfonyl)-piperazine-1-carboxylic acid tert-butyl ester] | 1000 to 25000 nM |
| C=CC(=O)Nc1ccc(S(=O)(=O)N2CCN(C(=O)Cc3cccc(Oc4ccccc4)c3)CC2)cc1 [N-(4-{4-[2-(3-Phenoxy-phenyl)-acetyl]-piperazine-1-sulfonyl}-phenyl)-acrylamide] | 100 to 1000 nM and < 100 nM |
| C=CC(=O)Nc1ccc(S(=O)(=O)N2CCN(c3nccc(C(F)(F)F)n3)CC2)cc1 [N-{4-[4-(4-Trifluoromethyl-pyrimidin-2-yl)-piperazine-1-sulfonyl]-phenyl}-acrylamide] | < 100 nM and 100 to 1000 nM |
| C=CC(=O)Nc1cccc(S(=O)(=O)N2CCN(CCc3ccccc3)CC2)c1 [N-[3-(4-Phenethyl-piperazine-1-sulfonyl)-phenyl]-acrylamide] | 1000 to 25000 nM |
| C=CC(=O)Nc1ccc(S(=O)(=O)N2CCN(C(=O)OC(C)(C)C)CC2)c(Cl)c1 [4-(4-Acryloylamino-2-chloro-benzenesulfonyl)-piperazine-1-carboxylic acid tert-butyl ester] | 100 to 1000 nM and < 100 nM |
| C=CC(=O)Nc1ccc(S(=O)(=O)N2CCC(N(C)C(=O)C34CC5CC(CC(C5)C3)C4)CC2)cc1 [Adamantane-1-carboxylic acid [1-(4-acryloylamino-benzenesulfonyl)-piperidin-4-yl]-methyl-amide] | 100 to 1000 nM and < 100 nM |
| C=CC(=O)Nc1ccc(S(=O)(=O)N2CCN(c3cccc4nc(C)ccc34)CC2)cc1 [N-{4-[4-(2-Methyl-quinolin-5-yl)-piperazine-1-sulfonyl]-phenyl}-acrylamide] | < 100 nM and 100 to 1000 nM |
| C=CC(=O)Nc1ccc(S(=O)(=O)N(C)Cc2csc(N3CCOCC3)n2)cc1 [N-{4-[Methyl-(2-morpholin-4-yl-thiazol-4-ylmethyl)-sulfamoyl]-phenyl}-acrylamide] | 1000 to 25000 nM |
| C=CC(=O)Nc1ccc(S(=O)(=O)N2CCN(C(=O)OCc3ccccc3)C(CC(=O)OC)C2)cc1 (stereo not shown) [4-(4-Acryloylamino-benzenesulfonyl)-2-methoxycarbonylmethyl-piperazine-1-carboxylic acid benzyl ester] | 100 to 1000 nM and < 100 nM |
| C=CC(=O)Nc1ccc(S(=O)(=O)N2CCN(c3ncnc4ccsc34)CC2)cc1 [N-[4-(4-Thieno[3,2-d]pyrimidin-4-yl-piperazine-1-sulfonyl)-phenyl]-acrylamide] | < 100 nM and 100 to 1000 nM |
| C=CC(=O)Nc1cccc(S(=O)(=O)N2CCN(CCCCc3ccccc3)CC2)c1 [N-{3-[4-(4-Phenyl-butyl)-piperazine-1-sulfonyl]-phenyl}-acrylamide] | 1000 to 25000 nM |
| C=CC(=O)Nc1ccc(S(=O)(=O)N2CCN(C(=O)OCc3ccccc3)CC2)cc1F [4-(4-Acryloylamino-3-fluoro-benzenesulfonyl)-piperazine-1-carboxylic acid benzyl ester] | 1000 to 25000 nM |
| C=CC(=O)Nc1ccc(S(=O)(=O)N2CCN(c3ncccc3C(F)(F)F)CC2)cc1 [N-{4-[4-(3-Trifluoromethyl-pyridin-2-yl)-piperazine-1-sulfonyl]-phenyl}-acrylamide] | 100 to 1000 nM and < 100 nM |
| C=CC(=O)Nc1ccc(S(=O)(=O)N2CCN(C(=O)OCc3ccc(CCCC)cc3)CC2)cc1 [4-(4-Acryloylamino-benzenesulfonyl)-piperazine-1-carboxylic acid 4-butyl-benzyl ester] | 1000 to 25000 nM |

Continued, values first:

| IC50 | SMILES |
| --- | --- |
| 100 to 1000 nM and < 100 nM | C=CC(=O)Nc1ccc(S(=O)(=O)N2CCN(C(=O)OCC(C)C)CC2)cc1 [4-(4-Acryloylamino-benzenesulfonyl)-piperazine-1-carboxylic acid isobutyl ester] |
| 100 to 1000 nM and < 100 nM | C=CC(=O)Nc1ccc(S(=O)(=O)N2CCN(C(=O)OCc3cccc(Cl)c3)CC2)cc1 [4-(4-Acryloylamino-benzenesulfonyl)-piperazine-1-carboxylic acid 3-chloro-benzyl ester] |
| < 100 nM and 100 to 1000 nM | C=CC(=O)Nc1ccc(S(=O)(=O)N2CCN(C(=O)OCc3ccc(F)cc3)CC2)cc1 [4-(4-Acryloylamino-benzenesulfonyl)-piperazine-1-carboxylic acid 4-fluoro-benzyl ester] |
| 100 to 1000 nM and < 100 nM | C=CC(=O)Nc1ccc(S(=O)(=O)N2CCN(c3cccc(C)n3)CC2)cc1 [N-{4-[4-(6-Methyl-pyridin-2-yl)-piperazine-1-sulfonyl]-phenyl}-acrylamide] |
| 100 to 1000 nM and < 100 nM | C=CC(=O)Nc1ccc(S(=O)(=O)N2CCN(C(=O)N3CCC4CCCCC4C3)CC2)cc1 (stereo not shown) [N-{4-[4-(Octahydro-isoquinoline-2-carbonyl)-piperazine-1-sulfonyl]-phenyl}-acrylamide] |
| 100 to 1000 nM and < 100 nM | C=CC(=O)Nc1ccc(S(=O)(=O)N2CCN(C(=O)N(C)C)CC2)cc1 [4-(4-Acryloylamino-benzenesulfonyl)-piperazine-1-carboxylic acid dimethylamide] |
| 100 to 1000 nM and < 100 nM | C=CC(=O)Nc1ccc(S(=O)(=O)N2CCN(c3ncccc3C)CC2)cc1 [N-{4-[4-(3-Methyl-pyridin-2-yl)-piperazine-1-sulfonyl]-phenyl}-acrylamide] |
| < 100 nM and 100 to 1000 nM | C=CC(=O)Nc1ccc(S(=O)(=O)N2CCN(c3ccnc(Cl)n3)CC2)cc1 [N-{4-[4-(2-Chloro-pyrimidin-4-yl)-piperazine-1-sulfonyl]-phenyl}-acrylamide] |
| < 100 nM and 100 to 1000 nM | C=CC(=O)Nc1ccc(S(=O)(=O)N2CCN(c3ncccn3)CC2)cc1 [N-[4-(4-Pyrimidin-2-yl-piperazine-1-sulfonyl)-phenyl]-acrylamide] |
| 100 to 1000 nM and < 100 nM | C=CC(=O)Nc1ccc(S(=O)(=O)N2CCN(C(=O)OCc3cc(F)cc(F)c3)CC2)cc1 [4-(4-Acryloylamino-benzenesulfonyl)-piperazine-1-carboxylic acid 3,5-difluoro-benzyl ester] |
| 100 to 1000 nM and < 100 nM | C=CC(=O)Nc1ccc(S(=O)(=O)N2CCN(C(=O)NCc3ccccc3)CC2)cc1 [4-(4-Acryloylamino-benzenesulfonyl)-piperazine-1-carboxylic acid benzylamide] |
| 100 to 1000 nM and < 100 nM | C=CC(=O)Nc1ccc(S(=O)(=O)N2CCN(C(=O)OCC)CC2)cc1 [4-(4-Acryloylamino-benzenesulfonyl)-piperazine-1-carboxylic acid ethyl ester] |
| < 100 nM and 100 to 1000 nM | C=CC(=O)Nc1ccc(S(=O)(=O)N2CCN(c3cnccn3)CC2)cc1 [N-[4-(2,3,5,6-Tetrahydro-[1,2′]bipyrazinyl-4-sulfonyl)-phenyl]-acrylamide] |
| 1000 to 25000 nM | C=CC(=O)Nc1ccc(S(=O)(=O)N2CCNCC2)cc1 [N-[4-(piperazine-1-sulfonyl)-phenyl]acrylamide] |

From patent US8946197B2, “Transglutaminase TG2 inhibitors, pharmaceutical compositions, and methods of use thereof” (CHDI Foundation, Inc., priority 2009, dated 2015)
